Experimental data taken from ChEMBL document CHEMBL5291721, “A preclinical secondary pharmacology resource illuminates target-adverse drug reaction associations of marketed drugs” (Nat Commun, 2023).

Experiments:
[1] = target: 5-hydroxytryptamine receptor 2B (Homo sapiens, UniProt P41595); assay type: functional, cell-based
[2] = target: T1, Alpha-1A adrenergic receptor (Homo sapiens, UniProt P35348); assay type: functional, cell-based
T1 sequence (P35348 whole entry): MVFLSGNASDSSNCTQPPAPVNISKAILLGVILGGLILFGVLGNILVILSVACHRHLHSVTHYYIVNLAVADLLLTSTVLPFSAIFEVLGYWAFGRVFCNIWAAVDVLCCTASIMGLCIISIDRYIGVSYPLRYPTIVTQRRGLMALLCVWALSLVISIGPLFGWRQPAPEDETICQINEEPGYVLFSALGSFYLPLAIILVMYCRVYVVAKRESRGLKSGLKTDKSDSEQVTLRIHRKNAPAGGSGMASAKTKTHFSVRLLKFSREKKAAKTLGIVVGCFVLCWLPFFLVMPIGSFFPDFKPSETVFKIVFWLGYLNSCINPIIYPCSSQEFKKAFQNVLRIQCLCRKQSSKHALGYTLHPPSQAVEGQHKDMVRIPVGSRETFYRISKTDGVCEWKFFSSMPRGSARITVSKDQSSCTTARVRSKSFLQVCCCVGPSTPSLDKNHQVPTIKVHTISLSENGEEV

[3] = target: 3',5'-cyclic-AMP phosphodiesterase 4D (Homo sapiens, UniProt Q08499); assay type: functional
[4] = target: T1, Alpha-1A adrenergic receptor; assay type: functional, cell-based; remark: listed apart in the source
[5] = target: Vascular endothelial growth factor receptor 2 (Homo sapiens, UniProt P35968); assay type: functional
[6] = target: Sodium-dependent dopamine transporter (Homo sapiens, UniProt Q01959)
[7] = target: T2, Muscarinic acetylcholine receptor M2 (Homo sapiens, UniProt P08172); assay type: functional, cell-based
T2 sequence (P08172 whole entry): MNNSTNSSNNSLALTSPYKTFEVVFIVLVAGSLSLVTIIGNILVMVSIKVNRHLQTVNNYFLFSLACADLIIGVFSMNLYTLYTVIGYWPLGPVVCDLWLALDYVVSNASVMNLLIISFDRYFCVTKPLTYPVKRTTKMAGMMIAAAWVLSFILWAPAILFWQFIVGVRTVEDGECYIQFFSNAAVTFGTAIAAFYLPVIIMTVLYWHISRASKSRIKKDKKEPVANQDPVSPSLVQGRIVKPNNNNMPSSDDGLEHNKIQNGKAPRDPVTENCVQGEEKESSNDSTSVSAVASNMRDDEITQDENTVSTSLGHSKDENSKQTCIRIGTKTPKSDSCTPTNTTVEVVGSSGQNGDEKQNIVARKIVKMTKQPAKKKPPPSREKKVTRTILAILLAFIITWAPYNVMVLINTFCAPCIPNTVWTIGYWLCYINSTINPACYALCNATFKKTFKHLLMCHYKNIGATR

[8] = target: T2, Muscarinic acetylcholine receptor M2; assay type: functional, cell-based; remark: listed apart in the source
[9] = target: T3, Prostaglandin G/H synthase 1 (Rattus norvegicus, UniProt Q63921); assay type: functional
T3 sequence (Q63921 whole entry): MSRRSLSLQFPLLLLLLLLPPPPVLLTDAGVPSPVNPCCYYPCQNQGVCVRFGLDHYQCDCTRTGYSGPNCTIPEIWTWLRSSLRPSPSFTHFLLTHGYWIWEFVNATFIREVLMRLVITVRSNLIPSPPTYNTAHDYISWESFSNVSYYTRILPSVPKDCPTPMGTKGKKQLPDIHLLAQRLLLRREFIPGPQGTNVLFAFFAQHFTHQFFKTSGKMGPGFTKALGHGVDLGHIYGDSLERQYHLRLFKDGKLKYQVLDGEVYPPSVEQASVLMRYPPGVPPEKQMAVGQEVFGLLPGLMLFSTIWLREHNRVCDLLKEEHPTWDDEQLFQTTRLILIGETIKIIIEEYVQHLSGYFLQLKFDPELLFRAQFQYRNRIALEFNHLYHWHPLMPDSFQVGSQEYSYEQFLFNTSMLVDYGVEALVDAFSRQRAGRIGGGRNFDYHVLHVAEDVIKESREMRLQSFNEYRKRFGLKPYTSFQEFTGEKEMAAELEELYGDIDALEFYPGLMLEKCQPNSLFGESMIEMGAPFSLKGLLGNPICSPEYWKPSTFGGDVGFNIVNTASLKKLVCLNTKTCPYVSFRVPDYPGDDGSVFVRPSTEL
Note: assay procedure not described here.

Sodium-dependent dopamine transporter, sequence (Q01959 whole entry): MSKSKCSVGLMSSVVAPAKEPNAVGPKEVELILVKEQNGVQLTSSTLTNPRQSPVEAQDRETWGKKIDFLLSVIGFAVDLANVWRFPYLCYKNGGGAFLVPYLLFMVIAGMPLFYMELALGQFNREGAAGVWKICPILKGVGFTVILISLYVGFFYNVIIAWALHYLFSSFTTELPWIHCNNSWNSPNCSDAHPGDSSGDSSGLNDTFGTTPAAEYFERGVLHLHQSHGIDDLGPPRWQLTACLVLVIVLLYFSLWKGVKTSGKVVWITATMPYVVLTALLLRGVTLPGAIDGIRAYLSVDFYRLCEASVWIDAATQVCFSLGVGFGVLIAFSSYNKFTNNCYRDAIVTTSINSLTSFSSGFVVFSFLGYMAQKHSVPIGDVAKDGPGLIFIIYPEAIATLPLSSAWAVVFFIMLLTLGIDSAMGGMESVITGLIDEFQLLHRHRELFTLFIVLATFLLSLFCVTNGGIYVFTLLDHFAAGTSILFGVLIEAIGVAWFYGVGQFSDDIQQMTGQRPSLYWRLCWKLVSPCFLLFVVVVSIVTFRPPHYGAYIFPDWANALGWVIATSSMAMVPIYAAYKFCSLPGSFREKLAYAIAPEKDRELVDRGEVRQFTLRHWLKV
Vascular endothelial growth factor receptor 2, sequence (P35968 whole entry): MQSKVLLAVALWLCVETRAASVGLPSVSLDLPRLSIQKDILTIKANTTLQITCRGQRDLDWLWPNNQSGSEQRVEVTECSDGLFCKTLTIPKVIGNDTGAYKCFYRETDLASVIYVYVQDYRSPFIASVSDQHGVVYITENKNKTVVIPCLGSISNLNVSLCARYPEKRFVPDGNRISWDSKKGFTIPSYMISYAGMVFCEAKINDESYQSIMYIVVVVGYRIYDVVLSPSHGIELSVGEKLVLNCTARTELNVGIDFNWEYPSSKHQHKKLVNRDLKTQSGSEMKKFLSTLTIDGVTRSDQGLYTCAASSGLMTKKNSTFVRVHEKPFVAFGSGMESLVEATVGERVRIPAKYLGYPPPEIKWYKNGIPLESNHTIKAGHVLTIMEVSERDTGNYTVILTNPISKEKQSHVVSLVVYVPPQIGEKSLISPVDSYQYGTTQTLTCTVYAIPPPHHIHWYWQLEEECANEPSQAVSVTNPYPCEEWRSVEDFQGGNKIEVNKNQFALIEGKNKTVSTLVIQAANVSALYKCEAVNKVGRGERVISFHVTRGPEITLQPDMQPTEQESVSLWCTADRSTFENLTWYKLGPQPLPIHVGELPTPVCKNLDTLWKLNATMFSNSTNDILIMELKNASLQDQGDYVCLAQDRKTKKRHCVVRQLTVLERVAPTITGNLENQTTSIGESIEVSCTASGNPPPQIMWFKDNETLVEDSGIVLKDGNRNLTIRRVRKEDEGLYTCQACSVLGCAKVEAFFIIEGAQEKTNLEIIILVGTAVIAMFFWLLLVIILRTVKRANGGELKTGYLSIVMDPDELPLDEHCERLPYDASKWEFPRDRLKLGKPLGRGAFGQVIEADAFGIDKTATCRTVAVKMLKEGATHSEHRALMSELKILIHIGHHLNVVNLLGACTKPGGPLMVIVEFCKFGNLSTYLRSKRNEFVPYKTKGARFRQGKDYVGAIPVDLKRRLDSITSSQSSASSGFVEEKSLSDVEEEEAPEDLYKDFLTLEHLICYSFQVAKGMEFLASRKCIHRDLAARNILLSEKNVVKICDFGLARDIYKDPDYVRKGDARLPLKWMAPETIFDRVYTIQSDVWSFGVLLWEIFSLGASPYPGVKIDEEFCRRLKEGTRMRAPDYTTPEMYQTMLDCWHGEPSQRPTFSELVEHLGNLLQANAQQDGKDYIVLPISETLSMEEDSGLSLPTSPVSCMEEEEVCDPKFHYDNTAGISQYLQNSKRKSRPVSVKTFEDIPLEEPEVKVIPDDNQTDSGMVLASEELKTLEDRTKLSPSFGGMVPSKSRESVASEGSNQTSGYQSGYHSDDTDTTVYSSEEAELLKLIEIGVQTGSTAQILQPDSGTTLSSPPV
3',5'-cyclic-AMP phosphodiesterase 4D, sequence (Q08499 whole entry): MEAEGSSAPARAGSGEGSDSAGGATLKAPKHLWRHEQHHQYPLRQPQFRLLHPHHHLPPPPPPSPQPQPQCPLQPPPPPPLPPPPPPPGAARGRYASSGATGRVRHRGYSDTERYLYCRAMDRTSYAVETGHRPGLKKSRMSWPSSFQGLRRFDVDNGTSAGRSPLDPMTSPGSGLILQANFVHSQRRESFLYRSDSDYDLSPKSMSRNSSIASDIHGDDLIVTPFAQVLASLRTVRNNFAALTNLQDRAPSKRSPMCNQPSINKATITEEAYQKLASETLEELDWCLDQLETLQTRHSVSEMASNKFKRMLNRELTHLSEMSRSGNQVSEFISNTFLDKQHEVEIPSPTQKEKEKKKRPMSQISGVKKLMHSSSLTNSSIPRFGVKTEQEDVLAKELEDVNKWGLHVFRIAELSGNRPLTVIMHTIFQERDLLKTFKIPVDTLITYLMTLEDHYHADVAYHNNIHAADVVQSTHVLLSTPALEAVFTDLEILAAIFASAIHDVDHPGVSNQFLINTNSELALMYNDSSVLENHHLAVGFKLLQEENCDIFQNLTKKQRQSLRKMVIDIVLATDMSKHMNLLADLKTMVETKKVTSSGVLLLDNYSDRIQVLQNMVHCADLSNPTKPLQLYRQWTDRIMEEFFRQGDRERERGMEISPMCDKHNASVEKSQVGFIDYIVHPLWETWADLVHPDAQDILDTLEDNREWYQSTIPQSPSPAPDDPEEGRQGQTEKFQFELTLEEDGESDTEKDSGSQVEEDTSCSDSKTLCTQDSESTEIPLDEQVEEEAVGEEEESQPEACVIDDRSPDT
5-hydroxytryptamine receptor 2B, sequence (P41595 whole entry): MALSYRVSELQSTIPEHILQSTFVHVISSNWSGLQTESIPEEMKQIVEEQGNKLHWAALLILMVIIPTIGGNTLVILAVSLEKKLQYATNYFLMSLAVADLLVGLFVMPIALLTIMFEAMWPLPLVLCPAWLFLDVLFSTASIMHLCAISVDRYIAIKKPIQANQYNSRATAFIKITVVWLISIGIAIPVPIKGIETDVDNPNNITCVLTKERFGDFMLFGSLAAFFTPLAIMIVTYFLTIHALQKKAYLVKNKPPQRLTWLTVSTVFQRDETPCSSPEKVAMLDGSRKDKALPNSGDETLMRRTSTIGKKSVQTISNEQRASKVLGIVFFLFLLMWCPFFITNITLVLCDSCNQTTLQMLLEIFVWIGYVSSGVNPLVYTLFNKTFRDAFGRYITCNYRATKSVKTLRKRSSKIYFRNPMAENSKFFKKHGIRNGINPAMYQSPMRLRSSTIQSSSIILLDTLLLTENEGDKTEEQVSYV

Row | SMILES | AC50 [1] [µM] | AC50 [2] [µM] | AC50 [3] [µM] | AC50 [4] [µM] | AC50 [5] [µM] | AC50 [6] [µM] | AC50 [7] [µM] | AC50 [8] [µM] | AC50 [9] [µM]
1 | CO/N=C(\C(=O)N[C@@H]1C(=O)N2C(C(=O)OCOC(=O)C(C)(C)C)=C(C)CS[C@H]12)c1csc(N)n1 | > 30 | > 30 | > 30 | > 30 |  |  |  |  | 
2 | Nc1ccc(C(=O)O)cc1 [AMINOBENZOIC ACID] |  |  |  |  | > 30 |  |  |  | 
3 | CCCC1C(=O)N2C(N(C)C)=Nc3ccc(C)cc3N2C1=O (centres undefined) [APAZONE] |  |  |  |  | > 30 |  |  |  | 
4 | NS(=O)(=O)c1cc(-c2nnn[nH]2)c(NCc2cccs2)cc1Cl [AZOSEMIDE] | > 30 | > 30 | 7.8 | > 30 |  | > 30 | > 30 | > 30 | 19
5 | O=C(Cn1ccnc1[N+](=O)[O-])NCc1ccccc1 [BENZNIDAZOLE] | > 30 | > 30 | > 30 | > 30 |  | > 30 | > 30 | > 30 | > 30
6 | C[N+](C)(C)CC(=O)O [BETAINE] | > 30 | > 30 | > 30 | > 30 |  | > 30 | > 30 | > 30 | > 30
7 | CN(Cc1cc(Br)cc(Br)c1N)C1CCCCC1 [BROMHEXINE] |  |  |  |  | > 30 |  |  |  | 
8 | CCCC(=O)N1CCCN(c2nc(N)c3cc(OC)c(OC)cc3n2)CC1 [BUNAZOSIN] | > 30 | > 30 | > 30 |  |  | > 30 | > 30 | > 30 | > 30
9 | CCCCN(CCCC)CCCOC(=O)c1ccc(N)cc1 [BUTACAINE] |  |  |  |  | > 30 |  |  |  | 
10 | C[N+](C)(C)CCOC(N)=O [CARBAMOYLCHOLINE] | > 30 | > 30 | > 30 | > 30 |  | > 10 |  |  | > 10
11 | N[C@@H](CSCC(=O)O)C(=O)O [CARBOCYSTEINE] | > 30 | > 30 | > 10 | > 30 |  | > 30 | > 30 | > 30 | > 30
12 | COCC1=C(C(=O)OC(C)OC(=O)OC(C)C)N2C(=O)[C@@H](NC(=O)/C(=N\OC)c3csc(N)n3)[C@H]2SC1 (some centres undefined) [CEFPODOXIME PROXETIL] | > 30 | > 30 | 29 | > 30 |  |  | > 30 | > 30 | 
13 | CC(C)(N)Cc1ccc(Cl)cc1 [CHLORPHENTERMINE] | 25 | > 30 | > 30 | > 30 |  | 7.59 | > 10 | > 10 | > 30
14 | NS(=O)(=O)c1cc2c(cc1Cl)NC(CC1CCCC1)NS2(=O)=O (centres undefined) [CYCLOPENTHIAZIDE] | > 30 | > 30 | > 30 | > 30 |  |  |  |  | 
15 | CN(C)[C@@H]1C(O)=C(C(N)=O)C(=O)[C@@]2(O)C(O)=C3C(=O)c4c(O)ccc(Cl)c4[C@@H](O)[C@H]3C[C@@H]12 [DEMECLOCYCLINE] | > 10 |  | > 30 |  |  | > 10 | > 10 | > 10 | > 10
16 | C[C@@H]1C[C@H]2[C@@H]3CCC4=CC(=O)C=C[C@]4(C)[C@@]3(F)[C@@H](O)C[C@]2(C)[C@H]1C(=O)CO [DESOXIMETASONE] |  |  |  |  | > 30 |  |  |  | 
17 | NS(=O)(=O)c1cc(Cl)c(Cl)c(S(N)(=O)=O)c1 [DICHLORPHENAMIDE] | > 10 | > 30 | > 30 | > 30 |  | > 10 | > 10 | > 10 | > 10

Row | SMILES | AC50 [1] [µM] | AC50 [2] [µM] | AC50 [3] [µM] | AC50 [4] [µM] | AC50 [5] [µM] | AC50 [6] [µM] | AC50 [7] [µM] | AC50 [8] [µM] | AC50 [9] [µM]
18 | COc1ccc(-c2cc(=O)c3c(O)cc(O[C@@H]4O[C@H](CO[C@@H]5O[C@@H](C)[C@H](O)[C@@H](O)[C@H]5O)[C@@H](O)[C@H](O)[C@H]4O)cc3o2)cc1O [DIOSMIN] |  |  |  |  | > 30 |  |  |  | 
19 | CC1=NN(c2ccccc2)C(=O)C1 [EDARAVONE] |  |  |  |  | > 30 |  |  |  | 
20 | C=C1C[C@@H]2[C@H](CC[C@]3(C)C(=O)CC[C@@H]23)[C@@]2(C)C=CC(=O)C=C12 [EXEMESTANE] | 36 | > 30 | > 30 | > 30 |  | > 30 | > 10 | > 10 | > 30
21 | O=C1NCC2(CCN(CCc3ccccc3)CC2)O1 [FENSPIRIDE] |  |  |  |  | > 30 |  |  |  | 
22 | CC/C=C\C/C=C\C/C=C\C/C=C\C/C=C\CCCC(=O)O [ICOSAPENT] |  |  |  |  | > 30 |  |  |  | 
23 | CC(C(O)c1ccc(O)cc1)N1CCC(Cc2ccccc2)CC1 (centres undefined) [IFENPRODIL] | 2.3 | > 30 | > 30 | 0.45 |  | 1.2 | > 30 | > 30 | > 30
24 | CC(=O)N(CC(O)CO)c1c(I)c(C(=O)NCC(O)CO)c(I)c(C(=O)NCC(O)CO)c1I (centres undefined) [IOHEXOL] | > 10 | > 30 | > 30 | > 30 |  | > 30 | > 10 | > 10 | > 30
25 | CN(CCCN1c2ccccc2CCc2ccccc21)CC(=O)c1ccc(Cl)cc1 [LOFEPRAMINE] | > 30 | > 30 | 28 | 4.4 |  | 21 | > 30 | > 30 | 1.3
26 | CC(=O)O[C@]1(C(C)=O)CC[C@H]2[C@@H]3C[C@H](C)C4=CC(=O)CC[C@]4(C)[C@H]3CC[C@@]21C [MEDROXYPROGESTERONE ACETATE] |  |  |  |  |  | > 30 |  |  | > 30
27 | CN(C/C=C/c1ccccc1)Cc1cccc2ccccc12 [NAFTIFINE] | > 10 | > 30 | > 30 | > 30 |  | 17.3 | > 10 | > 10 | 23.1
28 | CC(C)NCC1CCc2cc(CO)c([N+](=O)[O-])cc2N1 (centres undefined) [OXAMNIQUINE] | 26 | > 30 | > 30 | > 30 |  | > 30 | > 10 | > 10 | > 10
29 | Nc1ccc(/N=N/c2ccccc2)c(N)n1 [PHENAZOPYRIDINE] | 24 | > 30 | 14 | > 30 |  |  | > 30 | > 30 | 
30 | CN(C)CCCN1c2ccccc2Sc2ccccc21 [PROMAZINE] | 5.7 | > 30 | > 10 | 0.141 |  | > 10 | > 10 | > 10 | > 30
31 | O=C(O)CCn1c2c(c3ccccc31)C[C@H](NS(=O)(=O)c1ccc(F)cc1)CC2 [RAMATROBAN] | > 10 |  | > 30 |  |  | > 30 | > 10 | > 10 | > 30
32 | O=P(O)(O)C(O)(Cc1cccnc1)P(=O)(O)O [RISEDRONIC ACID] | > 30 | > 30 | > 30 | > 30 |  | > 30 | > 30 | > 30 | > 30
33 | CC(=O)N[C@H]1[C@H]([C@H](O)[C@H](O)CO)OC(C(=O)O)=C[C@@H]1N=C(N)N [ZANAMIVIR] | > 30 |  | > 30 |  |  | > 30 | > 10 | > 10 | > 30
